Experimental data from PubChem BioAssay (NCI).
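48-hour exposure; five concentrations; linearly interpolated endpoints. GI50 is the concentration that inhibits growth by half. TGI is the concentration that stops growth completely.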

Key:
Assay in all cases: growth of human tumour cells (NCI), 48 h
UACC-257 melanoma = test system: UACC-257 melanoma
HOP-92 NSCLC = test system: HOP-92 NSCLC
HCT-116 colon = test system: HCT-116 colon
SK-OV-3 ovarian = test system: SK-OV-3 ovarian
ACHN renal = test system: ACHN renal
NCI-H460 lung = test system: NCI-H460 lung
SK-MEL-5 melanoma = test system: SK-MEL-5 melanoma
HCT-15 colon = test system: HCT-15 colon
LOX IMVI melanoma = test system: LOX IMVI melanoma
KM12 colon = test system: KM12 colon
A549 NSCLC = test system: A549 NSCLC
U251 CNS = test system: U251 CNS
MOLT-4 leukemia = test system: MOLT-4 leukemia
NCI/ADR-RES ovarian = test system: NCI/ADR-RES ovarian
DU-145 prostate = test system: DU-145 prostate
OVCAR-5 ovarian = test system: OVCAR-5 ovarian
HCC-2998 colon = test system: HCC-2998 colon
UO-31 renal = test system: UO-31 renal
NCI-H226 lung = test system: NCI-H226 lung
SF-295 CNS = test system: SF-295 CNS
T-47D breast = test system: T-47D breast
OVCAR-3 ovarian = test system: OVCAR-3 ovarian
CAKI-1 renal = test system: CAKI-1 renal
786-0 renal = test system: 786-0 renal
CCRF-CEM leukemia = test system: CCRF-CEM leukemia
MCF7 breast = test system: MCF7 breast
SF-268 CNS = test system: SF-268 CNS
SR leukemia = test system: SR leukemia
NCI-H23 lung = test system: NCI-H23 lung
SNB-19 CNS = test system: SNB-19 CNS
TK-10 renal = test system: TK-10 renal
SW-620 colon = test system: SW-620 colon
OVCAR-4 ovarian = test system: OVCAR-4 ovarian
OVCAR-8 ovarian = test system: OVCAR-8 ovarian
K-562 leukemia = test system: K-562 leukemia
COLO 205 colon = test system: COLO 205 colon
HS 578T breast = test system: HS 578T breast
MDA-MB-231 breast = test system: MDA-MB-231 breast
M14 melanoma = test system: M14 melanoma
HT29 colon = test system: HT29 colon
MDA-MB-435 = test system: MDA-MB-435
MALME-3M melanoma = test system: MALME-3M melanoma
RPMI-8226 leukemia = test system: RPMI-8226 leukemia
PC-3 prostate = test system: PC-3 prostate
HOP-62 NSCLC = test system: HOP-62 NSCLC
SNB-75 CNS = test system: SNB-75 CNS
UACC-62 melanoma = test system: UACC-62 melanoma
SK-MEL-28 melanoma = test system: SK-MEL-28 melanoma
SN12C renal = test system: SN12C renal
SK-MEL-2 melanoma = test system: SK-MEL-2 melanoma
IGROV1 ovarian = test system: IGROV1 ovarian
EKVX NSCLC = test system: EKVX NSCLC

Structure (SMILES): C/C(=N\n1c(N)c(C#N)c(-c2ccc(Cl)cc2)c(C#N)c1=O)c1cccnc1
- GI50 (UACC-257 melanoma): > 100 µM
- TGI (UACC-257 melanoma): > 100 µM
- TGI (HOP-92 NSCLC): 34.8 µM
- GI50 (HCT-116 colon): > 100 µM
- TGI (HCT-116 colon): > 100 µM
- GI50 (SK-OV-3 ovarian): > 100 µM
- TGI (SK-OV-3 ovarian): > 100 µM
- GI50 (ACHN renal): > 100 µM
- TGI (ACHN renal): > 100 µM
- GI50 (NCI-H460 lung): > 100 µM
- TGI (NCI-H460 lung): > 100 µM
- GI50 (SK-MEL-5 melanoma): > 100 µM
- TGI (SK-MEL-5 melanoma): > 100 µM
- GI50 (HCT-15 colon): > 100 µM
- TGI (HCT-15 colon): > 100 µM
- GI50 (LOX IMVI melanoma): > 100 µM
- TGI (LOX IMVI melanoma): > 100 µM
- GI50 (KM12 colon): > 100 µM
- TGI (KM12 colon): > 100 µM
- GI50 (A549 NSCLC): > 100 µM
- TGI (A549 NSCLC): > 100 µM
- GI50 (U251 CNS): > 100 µM
- TGI (U251 CNS): > 100 µM
- GI50 (MOLT-4 leukemia): > 100 µM
- TGI (MOLT-4 leukemia): > 100 µM
- GI50 (NCI/ADR-RES ovarian): > 100 µM
- TGI (NCI/ADR-RES ovarian): > 100 µM
- GI50 (DU-145 prostate): > 100 µM
- TGI (DU-145 prostate): > 100 µM
- GI50 (OVCAR-5 ovarian): > 100 µM
- TGI (OVCAR-5 ovarian): > 100 µM
- GI50 (HCC-2998 colon): > 100 µM
- TGI (HCC-2998 colon): > 100 µM
- GI50 (UO-31 renal): > 100 µM
- TGI (UO-31 renal): > 100 µM
- GI50 (NCI-H226 lung): > 100 µM
- TGI (NCI-H226 lung): > 100 µM
- GI50 (SF-295 CNS): > 100 µM
- TGI (SF-295 CNS): > 100 µM
- GI50 (T-47D breast): > 100 µM
- TGI (T-47D breast): > 100 µM
- GI50 (OVCAR-3 ovarian): > 100 µM
- TGI (OVCAR-3 ovarian): > 100 µM
- GI50 (CAKI-1 renal): > 100 µM
- TGI (CAKI-1 renal): > 100 µM
- GI50 (786-0 renal): > 100 µM
- TGI (786-0 renal): > 100 µM
- GI50 (CCRF-CEM leukemia): > 100 µM
- TGI (CCRF-CEM leukemia): > 100 µM
- GI50 (MCF7 breast): > 100 µM
- TGI (MCF7 breast): > 100 µM
- GI50 (SF-268 CNS): > 100 µM
- TGI (SF-268 CNS): > 100 µM
- GI50 (SR leukemia): > 100 µM
- TGI (SR leukemia): > 100 µM
- GI50 (NCI-H23 lung): > 100 µM
- TGI (NCI-H23 lung): > 100 µM
- GI50 (SNB-19 CNS): > 100 µM
- TGI (SNB-19 CNS): > 100 µM
- GI50 (TK-10 renal): > 100 µM
- TGI (TK-10 renal): > 100 µM
- GI50 (SW-620 colon): > 100 µM
- TGI (SW-620 colon): > 100 µM
- GI50 (OVCAR-4 ovarian): > 100 µM
- TGI (OVCAR-4 ovarian): > 100 µM
- GI50 (OVCAR-8 ovarian): > 100 µM
- TGI (OVCAR-8 ovarian): > 100 µM
- GI50 (K-562 leukemia): > 100 µM
- TGI (K-562 leukemia): > 100 µM
- GI50 (COLO 205 colon): > 100 µM
- TGI (COLO 205 colon): > 100 µM
- GI50 (HS 578T breast): > 100 µM
- TGI (HS 578T breast): > 100 µM
- GI50 (MDA-MB-231 breast): > 100 µM
- TGI (MDA-MB-231 breast): > 100 µM
- GI50 (M14 melanoma): > 100 µM
- TGI (M14 melanoma): > 100 µM
- GI50 (HT29 colon): > 100 µM
- TGI (HT29 colon): > 100 µM
- GI50 (MDA-MB-435): > 100 µM
- TGI (MDA-MB-435): > 100 µM
- GI50 (MALME-3M melanoma): > 100 µM
- TGI (MALME-3M melanoma): > 100 µM
- GI50 (RPMI-8226 leukemia): > 100 µM
- TGI (RPMI-8226 leukemia): > 100 µM
- GI50 (PC-3 prostate): > 100 µM
- TGI (PC-3 prostate): > 100 µM
- GI50 (HOP-62 NSCLC): > 100 µM
- TGI (HOP-62 NSCLC): > 100 µM
- GI50 (SNB-75 CNS): 14.6 µM
- TGI (SNB-75 CNS): 99.6 µM
- GI50 (UACC-62 melanoma): > 100 µM
- TGI (UACC-62 melanoma): > 100 µM
- GI50 (SK-MEL-28 melanoma): > 100 µM
- TGI (SK-MEL-28 melanoma): > 100 µM
- GI50 (SN12C renal): > 100 µM
- TGI (SN12C renal): > 100 µM
- GI50 (SK-MEL-2 melanoma): > 100 µM
- TGI (SK-MEL-2 melanoma): > 100 µM
- GI50 (IGROV1 ovarian): > 100 µM
- TGI (IGROV1 ovarian): > 100 µM
- GI50 (EKVX NSCLC): > 100 µM
- TGI (EKVX NSCLC): > 100 µM
